# Measurements: publication PMC3688238, “The effect of different dosing regimens of motesanib on the gallbladder: a randomized phase 1b study in patients with advanced solid tumors” (BMC Cancer, 2013)
# Where two headings read alike, the source gives them in different places.
# How the values were obtained:
# Type in all cases: in vivo, human
# [1] = test system: gallbladder; assay: Specific gallbladder findings per independent ultrasound review
# Experimental: (§1) Gallbladder volume was assessed by ultrasound after a ≥8 hours fast at screening (within 21 days prior to randomization) and before the motesanib morning dose on days 8 and 15 of cycle 1, on day 1 of cycles 2 and 3, every 6 weeks thereafter, and at the safety follow-up (30 to 33 days after the last dose). Ultrasound was performed weekly when motesanib was withheld and weekly for 4 weeks following treatment discontinuation. Gallbladder ultrasound measurements were assessed by independent central radiologic review (MedQIA, Los Angeles, CA, USA). Gallbladder ejection fraction was assessed by investigators or other study site personnel using CCK-HIDA at screening (within 21 days of randomization), on day 1 of cycle 2, day 1 of cycle 6 (±3 days), and at the safety follow-up. Study-specific training and standard operating procedures were supplied to all radiology technicians.
# [2] = test system: advanced metastatic solid tumors; assay: Tumor response per RECIST (investigator)
# Experimental: Tumor response per RECIST [27] was assessed by the investigators. Magnetic resonance imaging or CT scans were performed at screening, every 6 weeks thereafter, and at the safety follow-up. Complete or partial responses were confirmed >28 days after the initial response assessment throughout the study. Patients who discontinued without a postbaseline tumor assessment or confirmation were considered nonresponders.
# (§2) The ultrasound and CCK-HIDA gallbladder analysis sets, which included all randomized patients who received ≥1 dose of motesanib and had baseline and ≥1 evaluable follow-up ultrasound or CCK-HIDA, respectively, were used for the principal analysis of endpoints related to gallbladder size and characteristics. For each dosing scheme, estimates for the mean and maximum change from baseline in gallbladder size (volume as measured by ultrasound) and function (ejection fraction as measured by CCK-HIDA scan) were calculated. Mean change from baseline was calculated by taking the difference between the baseline gallbladder measurement and the average gallbladder measurement observed during study treatment. The mean (95% CI) difference was then calculated across all patients for each treatment arm, and for the whole study population. Maximum change from baseline in gallbladder size or volume was calculated by taking the difference between the baseline gallbladder measurement and the maximum gallbladder measurement observed during study treatment. The mean (95% CI) maximum change from baseline was then calculated across all patients for each treatment arm, and for the whole study population. Reversibility of changes in gallbladder volume and ejection fraction were evaluated calculating changes between the last on-treatment measurement and the last available measurement following the discontinuation of motesanib. Covariates (treatment, age, sex, body mass index, and nonsteroidal anti-inflammatory drug [NSAID] use) were explored in a linear regression model for potential relationships with gallbladder volume. Objective response was assessed for the safety analysis set, including only patients with measureable disease at baseline.
# [3] = test system: patients with advanced metastatic solid tumors; assay: Adverse events (NCI CTCAE version 3.0)
# Experimental: AEs occurring during treatment and through the safety follow-up were recorded and graded according to the National Cancer Institute Common Terminology Criteria for Adverse Events (version 3.0).
# [4] = test system: gallbladder; assay: Gallbladder function (ejection fraction) by CCK-HIDA, investigator assessment; settings: for Gallbladder ejection fraction, mean change from baseline (95% CI): CCK-HIDA
# Experimental: as §1, §2
# [5] = Pharmacokinetic analysis of plasma motesanib concentrations (noncompartmental); settings: for concentration at 24 h: read-out: Median Cmin (trough plasma concentration at 24 hours postdose); for Cmax: po, read-out: Median Cmax
# Experimental: Blood samples were collected as follows: predose and at 30 minutes and 1, 2, 4, 6, 8, and 24 hours postdose on day 1 of weeks 1 and 4, and predose and 1 to 2 hours postdose at weeks 2, 3, and 7 and every 3 weeks thereafter. […] Motesanib concentrations were assessed as described previously.
# [6] = test system: gallbladder; assay: Gallbladder size (volume) by ultrasound, independent central review; settings: for Mean change in gallbladder volume after discontinuation of motesanib (95% CI): last on-treatment to last available off-treatment measurement; for Gallbladder volume, mean change from baseline (95% CI): ultrasound
# Experimental: as §1, §2
# [7] = Arm A, 125 mg QD, post baseline, n = 23
# [8] = Arm A, 125 mg QD, post treatment, n = 16
# [9] = Arm B, 75 mg BID 2 wk on/1 wk off
# [10] = Arm B, 75 mg BID 2 wk on/1 wk off, post baseline, n = 11
# [11] = Arm B, 75 mg BID 2 wk on/1 wk off, post treatment, n = 9
# [12] = Arm C, 75 mg BID 5 d on/2 d off
# [13] = Arm C, 75 mg BID 5 d on/2 d off, post baseline, n = 11
# [14] = Arm C, 75 mg BID 5 d on/2 d off, post treatment, n = 8
# [15] = Arm B, 75 mg BID 2 wk on/1 wk off, n = 3
# [16] = Arm B, 75 mg BID 2 wk on/1 wk off, n = 10
# [17] = Arm C, 75 mg BID 5 d on/2 d off, n = 2
# [18] = Arm C, 75 mg BID 5 d on/2 d off, n = 10
# [19] = Arm B, 75 mg BID 2 wk on/1 wk off, n = 9
# [20] = Arm B, 75 mg BID 2 wk on/1 wk off, n = 11
# [21] = Arm C, 75 mg BID 5 d on/2 d off, n = 8
# [22] = Arm C, 75 mg BID 5 d on/2 d off, n = 11
smiles,measurement,setting,value
CC1(C)CNc2cc(NC(=O)c3cccnc3NCc3ccncc3)ccc21 [Motesanib],Incidence of biliary sludge,"[1]; Arm A, 125 mg QD",39%
same,"Gallstones, patient incidence","[1]; Arm A, 125 mg QD, post baseline (any point during treatment), n = 23",4 (17) n (%)
same,"Common duct dilation, patient incidence",[1]; [7],0 (0) n (%)
same,"Pericholecystic fluid, patient incidence",[1]; [7],1 (4) n (%)
same,"Sludge, patient incidence",[1]; [7],9 (39) n (%)
same,"Gallstones, patient incidence","[1]; Arm A, 125 mg QD, post treatment (last available off-treatment assessment), n = 16",3 (19) n (%)
same,"Common duct dilation, patient incidence",[1]; [8],0 (0) n (%)
same,"Pericholecystic fluid, patient incidence",[1]; [8],0 (0) n (%)
same,"Sludge, patient incidence",[1]; [8],4 (25) n (%)
same,Incidence of biliary sludge,[1]; [9],36%
same,"Common duct dilation, patient incidence",[1]; [10],0 (0) n (%)
same,"Gallstones, patient incidence",[1]; [10],2 (18) n (%)
same,"Pericholecystic fluid, patient incidence",[1]; [10],1 (9) n (%)
same,"Sludge, patient incidence",[1]; [10],4 (36) n (%)
same,"Common duct dilation, patient incidence",[1]; [11],0 (0) n (%)
same,"Gallstones, patient incidence",[1]; [11],2 (22) n (%)
same,"Pericholecystic fluid, patient incidence",[1]; [11],0 (0) n (%)
same,"Sludge, patient incidence",[1]; [11],4 (44) n (%)
same,Incidence of biliary sludge,[1]; [12],27%
same,"Common duct dilation, patient incidence",[1]; [13],0 (0) n (%)
same,"Gallstones, patient incidence",[1]; [13],0 (0) n (%)
same,"Pericholecystic fluid, patient incidence",[1]; [13],0 (0) n (%)
same,"Sludge, patient incidence",[1]; [13],3 (27) n (%)
same,"Common duct dilation, patient incidence",[1]; [14],0 (0) n (%)
same,"Gallstones, patient incidence",[1]; [14],0 (0) n (%)
same,"Pericholecystic fluid, patient incidence",[1]; [14],0 (0) n (%)
same,"Sludge, patient incidence",[1]; [14],0 (0) n (%)
same,Patients who developed de novo gallstones during treatment,[1]; all arms,Two
same,Durable (≥24 weeks) stable disease,"[2]; Arm A, n = 6",25%
same,Progressive disease,"[2]; Arm A, n = 8",33%
same,Stable disease as best tumor response,"[2]; Arm A, n = 15",63%
same,Durable (≥24 weeks) stable disease,"[2]; Arm B, n = 1",8%
same,Progressive disease,"[2]; Arm B, n = 3",25%
same,Stable disease as best tumor response,"[2]; Arm B, n = 6",50%
same,Patients with confirmed partial response,"[2]; Arm B, stage IV thyroid cancer",one
same,Durable (≥24 weeks) stable disease,"[2]; Arm C, n = 1",9%
same,Progressive disease,"[2]; Arm C, n = 4",36%
same,Stable disease as best tumor response,"[2]; Arm C, n = 7",64%
same,Complete responses,[2]; all patients,No complete responses were achieved
same,Durable (≥24 weeks) stable disease,[2]; all patients (8 patients),17%
same,Progressive disease,[2]; all patients (fifteen patients),32%
same,Stable disease as best tumor response,[2]; all patients (twenty-eight patients),60%
same,Overall objective response rate,"[2]; all patients with measurable disease at baseline, RECIST",2%
same,Incidence of grade ≥3 treatment-related AEs,"[3]; Arm A, 125 mg QD",32%
same,Patients with serious grade 3 acute cholecystitis resulting in cholecystectomy,"[3]; Arm A, approximately 1 month after treatment initiation",one
same,Patients with cholecystitis that resolved after treatment discontinuation,"[3]; Arm A, grades 1, 2, 3, n = 1 each",Three
same,"Patients with grade 1 gallbladder disorders (gallbladder dysfunction, gallbladder wall thickening)","[3]; Arm A, ongoing at safety follow-up",two
same,Incidence of grade ≥3 treatment-related AEs,[3]; [9],42%
same,Incidence of grade ≥3 treatment-related AEs,[3]; [12],33%
same,Patients with right upper quadrant pain during the study,[3]; all patients,Twelve
same,Patients with grade 4 AEs,[3]; all patients (one each in Arms B and C),Two
same,"Gallbladder toxicity events (all considered treatment-related), incidence","[3]; occurred only in Arm A, 125 mg QD",12%
same,Mean change in ejection fraction after discontinuation of motesanib (95% CI),"[4]; Arm A, 125 mg QD, n = 5",10.8 (−45.8 to 67.4) %
same,Mean change in ejection fraction from baseline to last available off-treatment measurement (95% CI),"[4]; Arm A, 125 mg QD, n = 5",−16.6 (−53.3 to 20.1) %
same,"Gallbladder ejection fraction, maximum change from baseline (95% CI)","[4]; Arm A, 125 mg QD, n = 21",−30.1 (−46.4 to −13.7) %
same,"Gallbladder ejection fraction, mean change from baseline (95% CI)","[4]; Arm A, 125 mg QD, n = 21",−24.1 (−38.2 to −9.9) %
same,Mean change in ejection fraction after discontinuation of motesanib (95% CI),[4]; [15],63.0 (24.0 to 102.0) %
same,Mean change in ejection fraction from baseline to last available off-treatment measurement (95% CI),[4]; [15],7.7 (−3.8 to 19.1) %
same,"Gallbladder ejection fraction, maximum change from baseline (95% CI)",[4]; [16],−26.5 (−45.0 to −8.0) %
same,"Gallbladder ejection fraction, mean change from baseline (95% CI)",[4]; [16],−25.0 (−43.9 to −6.1) %
same,Mean change in ejection fraction after discontinuation of motesanib (95% CI),[4]; [17],46.0 (−347.9 to 439.9) %
same,Mean change in ejection fraction from baseline to last available off-treatment measurement (95% CI),[4]; [17],14.5 (−55.4 to 84.4) %
same,"Gallbladder ejection fraction, maximum change from baseline (95% CI)",[4]; [18],−6.5 (−29.8 to 16.8) %
same,"Gallbladder ejection fraction, mean change from baseline (95% CI)",[4]; [18],−3.3 (−25.0 to 18.4) %
same,"Gallbladder ejection fraction change from baseline, median",[4]; across all patients,−18.0%
same,"Gallbladder ejection fraction change from baseline, range",[4]; across all patients,−81% to 67
same,"Gallbladder ejection fraction decrease from baseline, mean","[4]; across all patients, from 61.3% at baseline",19.2%
same,Median motesanib concentration after wash-out period,"[5]; Arm B, after the 1-week wash-out period, limit of quantitation 0.2 ng/mL",< 0.2 ng/mL
same,Median motesanib concentration after wash-out period,"[5]; Arm C, after the 2-day wash-out period",1.2 ng/mL
same,Drug accumulation,[5]; after QD administration,no evidence of drug accumulation
same,concentration at 24 h,"[5]; human, plasma, oral, 75 mg, Arm B, 75 mg BID 2 wk on/1 wk off",60 ng/mL
same,concentration at 24 h,"[5]; human, plasma, oral, 75 mg, Arm C, 75 mg BID 5 d on/2 d off",35 ng/mL
same,concentration at 24 h,"[5]; human, plasma, oral, 125 mg, Arm A, 125 mg QD",14 ng/mL
same,AUC,"[5]; human, plasma, oral, range across the three dosing regimens, read-out: Median AUC",1900 to 3000 ng·h/mL
same,Cmax,"[5]; human, plasma, 75 mg, Arm B, 75 mg BID 2 wk on/1 wk off, plasma, oral",323 ng/mL
same,Cmax,"[5]; human, plasma, 75 mg, Arm C, 75 mg BID 5 d on/2 d off, plasma, oral",355 ng/mL
same,Cmax,"[5]; human, plasma, 125 mg, Arm A, 125 mg QD, plasma, oral",630 ng/mL
same,Mean change in gallbladder volume from baseline to last available off-treatment measurement (95% CI),"[6]; Arm A, 125 mg QD, n = 16",10.4 (−10.0 to 30.8) cc
same,Mean change in gallbladder volume after discontinuation of motesanib (95% CI),"[6]; Arm A, 125 mg QD, n = 16",−8.5 (−38.8 to 21.7) cc
same,"Gallbladder volume, maximum change from baseline (95% CI)","[6]; Arm A, 125 mg QD, n = 23",45.6 (20.2–70.9) cc
same,"Gallbladder volume, mean change from baseline (95% CI)","[6]; Arm A, 125 mg QD, n = 23",17.7 (6.4–28.9) cc
same,Mean change in gallbladder volume from baseline to last available off-treatment measurement (95% CI),[6]; [19],−14.4 (−31.1 to 2.4) cc
same,Mean change in gallbladder volume after discontinuation of motesanib (95% CI),[6]; [19],−16.2 (−37.4 to 5.1) cc
same,"Gallbladder volume, maximum change from baseline (95% CI)",[6]; [20],74.4 (41.3–107.4) cc
same,"Gallbladder volume, mean change from baseline (95% CI)",[6]; [20],26.8 (11.5–42.1) cc
same,Mean change in gallbladder volume from baseline to last available off-treatment measurement (95% CI),[6]; [21],7.1 (−28.9 to 43.0) cc
same,Mean change in gallbladder volume after discontinuation of motesanib (95% CI),[6]; [21],−7.4 (−67.1 to 52.4) cc
same,"Gallbladder volume, maximum change from baseline (95% CI)",[6]; [22],67.3 (30.8–103.8) cc
same,"Gallbladder volume, mean change from baseline (95% CI)",[6]; [22],26.9 (8.8–45.1) cc
same,"Gallbladder volume change from baseline during treatment, median",[6]; across all patients,17.3 cc
same,"Gallbladder volume change from baseline during treatment, range",[6]; across all patients,−43.3 to 83.2 cc
same,"Gallbladder volume increase from baseline during treatment, mean","[6]; across all patients, from 38.6 cc at baseline",22.2 cc
